In patent publication US12139478B2, “Compounds, compositions and methods” (Denali Therapeutics Inc., priority 2017, dated 2024):
Where two headings read alike, the source gives them in different places.

System: ATF4 translation
Experiment: ATF4 Nano Luciferase reporter integrated stress response (ISR) assay in H4 ATF4-NLuc cells
Format: cell-based, human
Conditions: H4 ATF4-NLuc (clone 17) cells, compound 30 minutes, then sodium arsenite for 6 additional hours, luminescence readout
Source text: Cellular stress leads to activation of the integrated stress response pathway through one of four eukaryotic initiation factor 2a kinases and halts global translation, while allowing for the translation of select transcripts like ATF4 (activating transcription factor 4) that are important for the response to cellular stress. During normal conditions, small open reading frames (ORFs) in the 5′ UTR of ATF4 occupy the ribosome and prevent translation of the coding sequence of ATF4. During stress conditions however, the ribosome scans past these upstream ORFs and preferentially begins translation at the coding sequence of ATF4. In this way, the translation, and thus protein level of ATF4 is a readout of ISR pathway activation. Thus, a fusion of the uORFs and the beginning of the coding sequence of ATF to a common cellular reporter like nano-luciferase allows for a sensitive and high-throughput readout of ISR pathway activity.
Compounds as provided herein were tested in the following assay. The ATF4 Nano Luciferase reporter was constructed by fusing the human full length 5′ untranslated region (5′-UTR) and a small portion of the coding sequence of the ATF4 gene upstream of the Nano Luciferase (NLuc) coding sequence lacking it's start codon. Specifically, nucleotides +1 through +364 (relative to the transcriptional start site) of ATF4 transcript variant 2 (NCBI NM_182810.2) flanked 5′ by EcoRI and 3′ by BamHI restriction enzyme sites were synthesized and cloned into the EcoRI/BamHI cloning sites of pLVX-EF1a-IRES-Puro lentivirus vector (Clontech). Lentiviral particles were produced with Lenti-X single shots (VSV-G, Clontech) according to the manufacturer's instructions and used to transduce a human H4 neuroglioma cell line (ATCC HTB-148). H4 cells were selected with 1.25 μg/mL Puromycin, and clonal cell lines generated by limiting dilution. We utilized this cell line to generate an integrated stress response (ISR) assay to evaluate the activity of ISR pathway inhibitors via luminescence readout. The H4 ATF4-NLuc (clone 17) cell line is plated at a density of […] in 96-well or 384-well respectively in DMEM+[…]. 24-hours later test compounds diluted in dimethyl sulfoxide (DMSO) are added for 30 minutes at 37° C., followed by ISR pathway activation with […] sodium arsenite aqueous solution for 6 additional hours. Nano Glo luciferase reagent (N1150, Promega) is added according to manufacturer instructions and the luminescence signal (corresponding to the level of ATF4 translation and thus ISR pathway activation) is read with a standard plate reader with luminescence detection capabilities. […] In the tables below, activity of the tested compounds is provided, and in Table 3 as follows: […]; ++=IC50 1-10 μM; +=IC50>10 μM.

[1] = Homo sapiens, 0.5 h, read-out: Activity
[2] = Homo sapiens, 0.5 h, read-out: Biological Example 1 (ATF4 translation, IC50 nM)

Row | SMILES | IC50 [1] [nM] | IC50 [2] [nM] | IC50 (read-out: Activity) [nM]
1 | O=C(COc1ccc(Cl)cc1)N[C@H]1CO[C@H](c2nnc(C3CC(OC(F)(F)F)C3)o2)[C@@H](F)C1 (stereo partly drawn) [Example 68, 2-(4-chlorophenoxy)-N-((3R,5S,6R)-5-fluoro-6-(5-(3-cis-(trifluoromethoxy)cyclobutyl)-1,3,4-oxadiazol-2-yl)tetrahydro-2H-pyran-3-yl)acetamide] | < 1000 | – | –
2 | O=C(N[C@@H]1CC[C@@H](c2nnc(C3CC(OC(F)(F)F)C3)o2)OC1)c1ccc2cc(C(F)(F)F)ccc2n1 (stereo partly drawn) [Example 60, N-((3R,6S)-6-(5-(3-cis-(trifluoromethoxy)cyclobutyl)-1,3,4-oxadiazol-2-yl)tetrahydro-2H-pyran-3-yl)-6-(trifluoromethyl)quinoline-2-carboxamide] | < 1000 | 3.5 | –
3 | O=C(COC1CC(OC(F)(F)F)C1)N[C@@H]1CC[C@@H](c2nnc([C@H]3C[C@@H](OC(F)(F)F)C3)o2)OC1 (stereo partly drawn) [Example 3, 2-[3-cis-(trifluoromethoxy)cyclobutoxy]-N-[(3R,6S)-6-[5-[(cis)-3-(trifluoromethoxy)cyclobutyl]-1,3,4-oxadiazol-2-yl]tetrahydropyran-3-yl]acetamide] | < 1000 | – | –
4 | O=C(N[C@@H]1CC[C@@H](c2nnc(C3CC(OC(F)(F)F)C3)o2)OC1)c1ccc2cc(Cl)ccc2n1 (stereo partly drawn) [Example 56, 6-chloro-N-[(3R,6S)-6-[5-[3-cis-(trifluoromethoxy)cyclobutyl]-1,3,4-oxadiazol-2-yl]tetrahydropyran-3-yl]quinoline-2-carboxamide] | < 1000 | – | –
5 | O=C(COC1CC(OC(F)(F)F)C1)N[C@@H]1CC[C@@H](c2cnn([C@H]3C[C@@H](OC(F)(F)F)C3)n2)OC1 (stereo partly drawn) [Example 17, 2-[3-cis-(trifluoromethoxy)cyclobutoxy]-N-[(3R,6S)-6-[2-[3-cis-(trifluoromethoxy)cyclobutyl]triazol-4-yl]tetrahydropyran-3-yl]acetamide] | < 1000 | – | –
6 | O=C(COc1ccc(Cl)c(F)c1)N[C@@H]1CC[C@@H](c2nnc(C3C[C@H]3COC(F)(F)F)o2)OC1 (single isomer, unassigned) [Example 69] | < 1000 | – | –
7 | O=C(COc1ccc(Cl)c(F)c1)N[C@@H]1CC[C@@H](c2nnc(COC(F)(F)F)o2)OC1 [Example 30, 2-(4-chloro-3-fluorophenoxy)-N-((3R,6S)-6-(5-((trifluoromethoxy)methyl)-1,3,4-oxadiazol-2-yl)tetrahydro-2H-pyran-3-yl)acetamide] | < 1000 | – | –
8 | O=C(COC1CC(OC(F)(F)F)C1)NC1CC[C@@H](c2cn([C@H]3C[C@@H](OC(F)(F)F)C3)nn2)OC1 (stereo partly drawn) [Example 18, 2-[3-cis-(trifluoromethoxy)cyclobutoxy]-N-[(3R,6S)-6-[1-[3-cis-(trifluoromethoxy)cyclobutyl]triazol-4-yl]tetrahydropyran-3-yl]acetamide] | < 1000 | – | –
9 | O=C(COc1ccc(Cl)cc1F)N[C@@H]1CC[C@@H](c2nnc([C@H]3C[C@@H](OC(F)(F)F)C3)o2)OC1 [Example 31, 2-(4-chloro-2-fluoro-phenoxy)-N-[(3R,6S)-6-[5-[3-cis-(trifluoromethoxy)cyclobutyl]-1,3,4-oxadiazol-2-yl]tetrahydropyran-3-yl]acetamide] | < 1000 | – | –
10 | O=C(COC1CC(OC(F)(F)F)C1)N[C@@H]1CC[C@@H](c2cc(-c3ccc(Cl)cc3)no2)OC1 (stereo partly shown) [Example 54] | < 1000 | – | –
11 | O=C(COc1ccc(Cl)c(F)c1)N[C@H]1CO[C@H](c2nnc(C3CC(OC(F)(F)F)C3)o2)CC1(F)F (stereo partly drawn) [Example 62, 2-(4-chloro-3-fluorophenoxy)-N-((3S,6S)-4,4-difluoro-6-(5-(3-cis-(trifluoromethoxy)cyclobutyl)-1,3,4-oxadiazol-2-yl)tetrahydro-2H-pyran-3-yl)acetamide] | < 1000 | – | –
12 | O=C(N[C@@H]1CC[C@@H](c2nnc(C3CC(OC(F)(F)F)C3)o2)OC1)[C@H]1CCc2cc(F)ccc2O1 (single isomer, unassigned) [Example 65] | < 1000 | 8.5 | –
13 | O=C(COc1ccc(Cl)cc1)NC12CCC(c3nnc([C@H]4C[C@@H](OC(F)(F)F)C4)o3)(CC1)OC2 [Example 26, 2-(4-chlorophenoxy)-N-[1-[5-[3-cis-(trifluoromethoxy)cyclobutyl]-1,3,4-oxadiazol-2-yl]-2-oxabicyclo[2.2.2]octan-4-yl]acetamide] | < 1000 | 2.2 | –
14 | O=C(COc1ccccc1)N[C@@H]1CC[C@@H](c2nnc([C@H]3C[C@@H](OC(F)(F)F)C3)o2)OC1 [Example 27, 2-phenoxy-N-[(3R,6S)-6-[5-[3-cis-(trifluoromethoxy)cyclobutyl]-1,3,4-oxadiazol-2-yl]tetrahydropyran-3-yl]acetamide] | < 1000 | – | –
15 | O=C(COc1ccc(Cl)cc1)N[C@@H]1CC[C@@H](C(O)COC2CC(OC(F)(F)F)C2)OC1 (single isomer, unassigned) [Example 64] | – | – | < 1000
16 | O=C(COc1ccc(F)cc1)N[C@H]1CO[C@H](c2nnc([C@H]3C[C@@H](OC(F)(F)F)C3)o2)C2CC21 (stereo partly drawn) [Example 32, 2-(4-fluorophenoxy)-N-((2S,5R)-2-(5-(3-cis-(trifluoromethoxy)cyclobutyl)-1,3,4-oxadiazol-2-yl)-3-oxabicyclo[4.1.0]heptan-5-yl)acetamide] | < 1000 | – | –
17 | O=C(N[C@H]1CO[C@H](c2nnc(C3CC(OC(F)(F)F)C3)o2)CC1(F)F)c1ccc2cc(F)ccc2n1 (stereo partly drawn) [Example 59, N-((3S,6S)-4,4-difluoro-6-(5-(3-cis-(trifluoromethoxy)cyclobutyl)-1,3,4-oxadiazol-2-yl)tetrahydro-2H-pyran-3-yl)-6-fluoroquinoline-2-carboxamide] | < 1000 | – | –
18 | O=C(COc1ccc(F)cc1)N[C@@H]1CC[C@@H](c2nc(C3CC(OC(F)(F)F)C3)no2)OC1 (stereo partly shown) [Example 38] | < 1000 | – | –
19 | O=C(COC1CC(OC(F)(F)F)C1)NC12CCC(c3nnc([C@H]4C[C@@H](OC(F)(F)F)C4)o3)(CC1)OC2 (stereo partly drawn) [Example 14, 2-[3-cis-(trifluoromethoxy)cyclobutoxy]-N-[1-[5-[3-cis-(trifluoromethoxy)cyclobutyl]-1,3,4-oxadiazol-2-yl]-2-oxabicyclo[2.2.2]octan-4-yl]acetamide] | < 1000 | – | –
20 | O=C(COc1ccc(F)cc1)N[C@H]1CO[C@H](c2nnc([C@H]3C[C@@H](OC(F)(F)F)C3)o2)CC1(F)F [Example 35, N-[(3S,6S)-4,4-difluoro-6-[5-[3-cis-(trifluoromethoxy)cyclobutyl]-1,3,4-oxadiazol-2-yl]tetrahydropyran-3-yl]-2-(4-fluorophenoxy)acetamide] | < 1000 | – | –
21 | O=C(N[C@@H]1CC[C@@H](c2nnc([C@H]3C[C@@H](OC(F)(F)F)C3)o2)OC1)[C@H]1C[C@@H]1COC(F)(F)F [Example 4, (1R,2R)—N-[(3R,6S)-6-[5-[3-cis-(trifluoromethoxy)cyclobutyl]-1,3,4-oxadiazol-2-yl]tetrahydropyran-3-yl]-2-(trifluoromethoxymethyl)cyclopropanecarboxamide] | 1000 to 10000 | – | –
22 | O=C(COc1ccc(Cl)c(F)c1)N[C@@H]1CC[C@@H](c2nnc(C3C[C@H]3COC(F)(F)F)o2)OC1 (single isomer, unassigned) [Example 70] | – | 8 | < 1000
23 | O=C(COC1CC(OC(F)(F)F)C1)N[C@@H]1CC[C@@H](c2nnc(-c3ccc(Cl)c(F)c3)o2)OC1 (stereo partly drawn) [Example 19, N-[(3R,6S)-6-[5-(4-chloro-3-fluoro-phenyl)-1,3,4-oxadiazol-2-yl]tetrahydropyran-3-yl]-2-[3-cis-(trifluoromethoxy)cyclobutoxy]acetamide] | < 1000 | 29.5 | –
24 | O=C(COC1CC(OC(F)(F)F)C1)N[C@@H]1CC[C@@H](c2ccn(-c3ccc(Cl)cc3)n2)OC1 (stereo partly shown) [Example 52] | < 1000 | 43 | –
25 | O=C(N[C@@H]1CC[C@@H](c2nnc(C3CC(OC(F)(F)F)C3)o2)OC1)c1cc2ccc(Cl)cc2cn1 (stereo partly drawn) [Example 44, 7-chloro-N-((3R,6S)-6-(5-(3-cis-(trifluoromethoxy)cyclobutyl)-1,3,4-oxadiazol-2-yl)tetrahydro-2H-pyran-3-yl)isoquinoline-3-carboxamide] | < 1000 | – | –
